The structures appear in SMILES notation. Like-named read-outs stand apart in the source and are kept apart here.

We go through nine compounds from patent publication US12060349B2, “Glucosylceramide synthase inhibitors” (Genzyme Corporation, priority 2012, dated 2024).

Test [1] has as its target T1, glucosylceramide synthase (Homo sapiens, UniProt Q16739).
T1 construct: Microsomes were isolated from A375 human melanoma cells; endogenous in cells; host or cells: A375 human melanoma cells (microsomal fraction, 100,000 g pellet)
T1 sequence (Q16739 1-394): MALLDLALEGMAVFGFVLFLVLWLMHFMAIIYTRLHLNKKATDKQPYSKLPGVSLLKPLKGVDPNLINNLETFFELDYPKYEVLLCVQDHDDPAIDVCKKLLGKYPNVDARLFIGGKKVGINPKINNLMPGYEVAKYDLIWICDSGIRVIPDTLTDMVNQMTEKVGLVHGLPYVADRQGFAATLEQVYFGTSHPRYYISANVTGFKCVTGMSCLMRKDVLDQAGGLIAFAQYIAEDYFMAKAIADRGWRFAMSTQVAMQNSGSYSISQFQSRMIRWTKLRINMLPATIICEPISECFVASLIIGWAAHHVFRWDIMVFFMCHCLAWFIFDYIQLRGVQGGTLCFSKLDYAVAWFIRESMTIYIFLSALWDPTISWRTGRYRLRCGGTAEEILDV
Kind of test: microsomal assay measuring conversion of ceramide to glucosylceramide by HPLC (GCS IC50). The test is classed as biochemical. The settings on record: concentration causing 50% inhibition of glucosylceramide synthase activity. The method, boiled down: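 IC50 is the compound concentration halving glucosylceramide synthase activity. Activity was measured in microsomes, with HPLC quantifying glucosylceramide formed from ceramide.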

For the next test, the system named is C32 human melanoma cells. Description: cell viability in the C32 cell-based assay (Viability, C32 IC50). The settings on record: concentration causing 50% cell death, values greater than 10 represent a lack of cell death. The gist of the method:
(§1)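 Viability readouts were run alongside the GM3 cell-surface assay in the same B16 and C32 cultures. A figure above 10 indicates no cell death.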

Another test has as its system B16 mouse melanoma cells. Kind of test: cell viability in the B16 cell-based assay (Viability, B16 IC50). The method, boiled down:
as §1

The test system of test [2] is GM3 expression on the cell surface, C32 human melanoma cells. Description: cell based phenotypic assay, cell surface GM3 by antibody mediated immunofluorescence, C32 (GM3 C32 IC50). The note with it: 50% inhibition of GM3 expression on the cell surface. The method, boiled down:
(§2)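 Both lines undergo the phenotypic GM3 assay, and viability is recorded from that same cell-based run.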

For test [3], the system named is GM3 expression on the cell surface, B16 mouse melanoma cells. Description: cell based phenotypic assay, cell surface GM3 by antibody mediated immunofluorescence, B16 (GM3 B16 IC50). The note with it: 50% inhibition of GM3 expression on the cell surface. The method, boiled down:
as §2

Setting [4] is: Homo sapiens, C32, C32 cells, read-out: Viability, C32 IC50.
Where [5] appears, read: Mus musculus, B16, B16 cells, concentration causing 50% cell death, values greater than 10 represent a lack of cell death, read-out: Viability, B16 IC50.
Where [6] appears, read: Homo sapiens, C32 human melanoma cells, read-out: GM3 C32 IC50.
Where [7] appears, read: Mus musculus, B16 mouse melanoma cells, read-out: GM3 B16 IC50.

Take `CN(C)C(=O)c1ccc(Oc2ccc(C(C)(C)NC(=O)OC3CN4CCC3CC4)cc2)cc1` (stereo not drawn) [Example 287, Quinuclidin-3-yl 2-(4-(4-(dimethylcarbamoyl)phenoxy)phenyl)propan-2-ylcarbamate]: the IC50 (commonly the concentration at which inhibition is half-maximal) in test [1] is 1330 nM; with C32 human melanoma cells (read-out: Viability, C32 IC50, C32 cells), 3.16 µM; in the test on B16 mouse melanoma cells (read-out: Viability, B16 IC50, B16 cells, concentration causing 50% cell death, values greater than 10 represent a lack of cell death), at least 10 µM; in test [2] (read-out: GM3 C32 IC50, C32 human melanoma cells), 229 nM; in test [3] (read-out: GM3 B16 IC50, B16 mouse melanoma cells) it was 2200 nM.

Take `CN(C)C(=O)c1cccc(Oc2cccc(C(C)(C)NC(=O)OC3CCN4CCC3CC4)c2)c1` (stereo not drawn) [Example 288, 1-Aza-bicyclo[3.2.2]nonan-4-yl 2-(3-(3-(dimethylcarbamoyl)phenoxy)phenyl)propan-2-ylcarbamate]: the IC50 in test [1] was 203 nM; in the test on C32 human melanoma cells (setting [4]) it was at least 10 µM; in the test on B16 mouse melanoma cells (setting [5]) it was at least 10 µM; in test [2] (setting [6]) it was 50.2 nM; in test [3] (setting [7]), 1180 nM.

For the compound `CN(C)C(=O)c1cccc(Oc2cccc(C(C)(C)NC(=O)NC3(C)CN4CCC3CC4)c2)c1` (stereo not drawn) [Example 289, N,N-Dimethyl-3-(3-(2-(3-(3-methylquinuclidin-3-yl)ureido)propan-2-yl)phenoxy)benzamide], the 50% inhibitory concentration (IC50) in test [1] was 104 nM; with C32 human melanoma cells (setting [4]), at least 10 µM; with B16 mouse melanoma cells (setting [5]), 9.26 µM; in test [2] (setting [6]), 91.7 nM; in test [3] (setting [7]), 1410 nM.

Regarding `CN(C)C(=O)c1ccc(Oc2ccc(C(C)(C)NC(=O)NC3(C)CCN4CCC3CC4)cc2)cc1` (stereo not drawn) [Example 290, N,N-Dimethyl-4-(4-(2-(3-(4-methyl-1-aza-bicyclo[3.2.2]nonan-4-yl)ureido)propan-2-yl)phenoxy)benzamide], the IC50 in test [1] is 19.1 nM; in the test on C32 human melanoma cells (C32 cells, read-out: Viability, C32 IC50) it was 3.16 µM; in the test with B16 mouse melanoma cells (B16 cells, concentration causing 50% cell death, values greater than 10 represent a lack of cell death, read-out: Viability, B16 IC50), at least 10 µM; in test [2] (C32 human melanoma cells, read-out: GM3 C32 IC50), 26.8 nM; in test [3] (B16 mouse melanoma cells, read-out: GM3 B16 IC50), 2580 nM.

With `CNC(=O)c1ccc(Oc2ccc(C(C)(C)NC(=O)OC3CN4CCC3CC4)cc2)cc1` (stereo not drawn) [Example 291, Quinuclidin-3-yl 2-(4-(4-(methylcarbamoyl)phenoxy)phenyl)propan-2-ylcarbamate], the half-maximal inhibitory concentration (IC50) in test [1] is 1910 nM; in the test with C32 human melanoma cells (Homo sapiens, C32, read-out: Viability, C32 IC50, C32 cells), 3.16 µM; in the test on B16 mouse melanoma cells (Mus musculus, B16, read-out: Viability, B16 IC50) it was at least 10 µM; in test [2] (Homo sapiens, read-out: GM3 C32 IC50, C32 human melanoma cells), 90.2 nM; in test [3] (Mus musculus, read-out: GM3 B16 IC50, B16 mouse melanoma cells), 2310 nM.

For the compound `CNC(=O)c1ccc(Oc2ccc(C(C)(C)NC(=O)OC3CCN4CCC3CC4)cc2)cc1` (stereo not drawn) [Example 292, 1-Aza-bicyclo[3.2.2]nonan-4-yl 2-(4-(4-(methylcarbamoyl)phenoxy)phenyl)propan-2-ylcarbamate], the 50% inhibitory concentration (IC50) in test [1] was 207 nM; with C32 human melanoma cells (setting [4]), at least 10 µM; with B16 mouse melanoma cells (setting [5]), at least 10 µM; in test [2] (setting [6]) it was 41.2 nM; in test [3] (setting [7]), 1220 nM.

In the case of `CNC(=O)c1ccc(Oc2ccc(C(C)(C)NC(=O)NC3(C)CN4CCC3CC4)cc2)cc1` (stereo not drawn) [Example 293, N-Methyl-4-(4-(2-(3-(3-methylquinuclidin-3-yl)ureido)propan-2-yl)phenoxy)benzamide], the half-maximal inhibitory concentration (IC50) was 186 nM in test [1]; 1 µM in the test with C32 human melanoma cells (setting [4]); at least 10 µM in the test with B16 mouse melanoma cells (setting [5]); 46 nM in test [2] (setting [6]); 5370 nM in test [3] (setting [7]).

On to `CNC(=O)c1ccc(Oc2ccc(C(C)(C)NC(=O)NC3(C)CCN4CCC3CC4)cc2)cc1` (stereo not drawn) [Example 294, N-Methyl-4-(4-(2-(3-(4-methyl-1-aza-bicyclo[3.2.2]nonan-4-yl)ureido)propan-2-yl)phenoxy)benzamide], for which the half-maximal inhibitory concentration (IC50) is 12.4 nM in test [1]; 1 µM in the test on C32 human melanoma cells (setting [4]); at least 10 µM with B16 mouse melanoma cells (setting [5]); 7.06 nM in test [2] (setting [6]); 843 nM in test [3] (setting [7]).

Turning to `CNC(=O)c1cccc(Oc2cccc(C(C)(C)NC(=O)NC3(C)CN4CCC3CC4)c2)c1` (stereo not drawn) [Example 296, N-Methyl-3-(3-(2-(3-(3-methylquinuclidin-3-yl)ureido)propan-2-yl)phenoxy)benzamide], the half-inhibitory concentration (IC50) in test [1] is 200 nM; in the test on C32 human melanoma cells (setting [4]), at least 10 µM; in the test on B16 mouse melanoma cells (setting [5]), at least 10 µM; in test [2] (setting [6]), 155 nM; in test [3] (setting [7]), 5470 nM.
